{"source": "paper PMC4463418", "about": "“The Effect of Hydrophobic Monoamines on Acid-Sensing Ion Channels ASIC1B” (Acta Naturae, 2015)", "format_in_all_cases": "cell-based", "key": {"ASIC1b [1]": {"molecular_target": "T1, ASIC1b (Rattus norvegicus, UniProt P55926)", "T1 construct": "gene Asic1; homomeric rASIC1b (splice variant) expressed in CHO cells", "T1 sequence (P55926 186-526 limits assumed)": "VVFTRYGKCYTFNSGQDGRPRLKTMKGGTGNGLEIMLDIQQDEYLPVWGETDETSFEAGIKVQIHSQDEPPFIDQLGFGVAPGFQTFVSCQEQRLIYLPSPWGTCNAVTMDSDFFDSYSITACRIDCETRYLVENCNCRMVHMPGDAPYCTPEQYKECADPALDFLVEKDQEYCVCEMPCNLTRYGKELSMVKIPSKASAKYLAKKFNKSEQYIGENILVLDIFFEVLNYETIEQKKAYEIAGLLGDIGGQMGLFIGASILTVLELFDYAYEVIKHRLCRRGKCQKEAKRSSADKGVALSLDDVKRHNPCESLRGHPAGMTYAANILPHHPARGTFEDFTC", "test": "whole-cell patch clamp, CHO cells, activation at pH […]"}, "ASIC1b [2]": {"molecular_target": "T1, ASIC1b", "test": "whole-cell patch clamp, CHO cells, inhibition at […]"}, "ASIC1b [3]": {"molecular_target": "T1, ASIC1b", "test": "whole-cell patch clamp, CHO cells, block at […], pH […]"}}}
{"smiles": "Nc1c2ccccc2nc2ccccc12", "note": "[9AA, 9-aminoacridine]", "values": [{"measurement": "IC50", "setting": "ASIC1b [1]", "value": "440 ± 20", "unit": "µM"}]}
{"smiles": "CC12CC3CC(C)(C1)CC(N)(C3)C2", "note": "[memantine]", "values": [{"measurement": "inhibition at 1000 µM", "setting": "ASIC1b [2]", "value": "44 ± 16", "unit": "%"}]}
{"smiles": "N=C(N)NC(=O)c1nc(Cl)c(N)nc1N", "note": "[amiloride]", "values": [{"measurement": "inhibition at 30 µM", "setting": "ASIC1b [3]", "value": "53 ± 7", "unit": "%"}]}
